In the supplement of paper PMC12463676, “Small-molecule dissolution of stress granules by redox modulation benefits ALS models” (Nature Chemical Biology, 2025):

Legend:
lipoamide = compound: NC(=O)CCCCC1CCSS1 [lipoamide]; assay: thermal stability z-score vs DMSO; higher = more thermally stabilized by treatment; settings: HeLa, lipoamide concentration 100 µM
Method: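 Cellular thermal proteome profiling in HeLa cells. Cells were treated with 100 µM lipoamide for 1 h, with or without 1 mM arsenate for a further 1 h, then heated to ten temperatures (37-66.3 °C), and soluble protein was quantified by TMT mass spectrometry relative to 0.1% DMSO controls. The thermal stability score (sum of log2 fold changes minus the abundance score) was transformed to a z-score; mean of n = 3 experiments.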

potassium arsenate = compound: O=[As]([O-])(O)O.[K+] [potassium arsenate]; assay: as above; settings: HeLa; arsenate concentration 1 mM
Method: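 Cellular thermal proteome profiling in HeLa cells treated with 1 mM arsenate for 1 h (DMSO pretreatment), heated to ten temperatures (37-66.3 °C). Soluble protein was quantified by TMT mass spectrometry relative to DMSO controls; the thermal stability score was transformed to a z-score; mean of n = 3 experiments.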

[1] = arsenate co-treatment: 1 mM arsenate 1 h
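Note: each temperature applied for 3 min, abundance score taken as mean log2 fold change at the two lowest temperatures, z-score obtained by mean subtraction and division by SD.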

Target: DHX36 (UniProt Q9H2U1)
UniProt Q9H2U1, sequence (Q9H2U1 whole entry): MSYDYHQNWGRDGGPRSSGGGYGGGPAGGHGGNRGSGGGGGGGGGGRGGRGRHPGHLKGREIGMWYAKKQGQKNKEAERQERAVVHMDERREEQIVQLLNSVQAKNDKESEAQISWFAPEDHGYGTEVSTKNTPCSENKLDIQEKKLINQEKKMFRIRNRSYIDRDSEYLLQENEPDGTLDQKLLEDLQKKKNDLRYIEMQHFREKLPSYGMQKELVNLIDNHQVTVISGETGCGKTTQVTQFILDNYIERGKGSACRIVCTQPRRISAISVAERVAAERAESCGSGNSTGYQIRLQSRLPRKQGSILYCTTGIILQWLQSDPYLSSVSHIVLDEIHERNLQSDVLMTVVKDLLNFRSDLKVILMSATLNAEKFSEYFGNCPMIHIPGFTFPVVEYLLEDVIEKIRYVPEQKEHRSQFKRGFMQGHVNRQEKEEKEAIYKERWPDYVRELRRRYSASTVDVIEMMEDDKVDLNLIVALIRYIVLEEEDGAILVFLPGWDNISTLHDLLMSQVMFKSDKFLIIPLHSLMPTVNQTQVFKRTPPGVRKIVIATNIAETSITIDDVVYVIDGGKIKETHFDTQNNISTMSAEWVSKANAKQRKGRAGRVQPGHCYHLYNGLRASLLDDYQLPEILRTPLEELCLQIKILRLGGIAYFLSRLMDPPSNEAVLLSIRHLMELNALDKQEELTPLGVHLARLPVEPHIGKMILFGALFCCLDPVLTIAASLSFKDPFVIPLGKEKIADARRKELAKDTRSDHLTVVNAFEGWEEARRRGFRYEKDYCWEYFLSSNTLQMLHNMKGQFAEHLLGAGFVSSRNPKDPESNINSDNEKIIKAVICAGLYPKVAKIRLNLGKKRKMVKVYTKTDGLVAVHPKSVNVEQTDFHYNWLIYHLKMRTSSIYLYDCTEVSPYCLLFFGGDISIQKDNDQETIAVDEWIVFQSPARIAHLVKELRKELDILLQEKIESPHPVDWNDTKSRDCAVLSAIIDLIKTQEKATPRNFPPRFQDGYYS
- thermal stability z-score (lipoamide; [1]): -0.0301
- thermal stability z-score (lipoamide; arsenate co-treatment: none): -0.0965
- thermal stability z-score (potassium arsenate): -0.0639

Target: SLC1A3 (UniProt P43003)
- thermal stability z-score (lipoamide; [1]): -0.157
- thermal stability z-score (lipoamide; arsenate co-treatment: none): 0.124
- thermal stability z-score (potassium arsenate): 0.352

Target: DIDO1 (UniProt Q9BTC0)
- thermal stability z-score (lipoamide; [1]): 0.835
- thermal stability z-score (lipoamide; arsenate co-treatment: none): 0.516
- thermal stability z-score (potassium arsenate): -1.37

Target: PITX1 (UniProt P78337)
- thermal stability z-score (lipoamide; [1]): 0.0195
- thermal stability z-score (lipoamide; arsenate co-treatment: none): -0.0855
- thermal stability z-score (potassium arsenate): 0.027

Target: PLCD3 (UniProt Q8N3E9)
- thermal stability z-score (lipoamide; [1]): 0.235
- thermal stability z-score (lipoamide; arsenate co-treatment: none): 0.151
- thermal stability z-score (potassium arsenate): 0.0088

Target: SRSF7 (UniProt Q16629)
- thermal stability z-score (lipoamide; [1]): 1.94
- thermal stability z-score (lipoamide; arsenate co-treatment: none): 0.776
- thermal stability z-score (potassium arsenate): 0.182

Target: TK2 (UniProt O00142)
- thermal stability z-score (lipoamide; [1]): 0.341
- thermal stability z-score (lipoamide; arsenate co-treatment: none): 0.589
- thermal stability z-score (potassium arsenate): -0.137

Target: TRIM56 (UniProt Q9BRZ2)
- thermal stability z-score (lipoamide; [1]): -0.0694
- thermal stability z-score (lipoamide; arsenate co-treatment: none): -0.839
- thermal stability z-score (potassium arsenate): -3.98

Target: SLC5A3 (UniProt P53794)
- thermal stability z-score (lipoamide; [1]): -0.536
- thermal stability z-score (lipoamide; arsenate co-treatment: none): -0.363
- thermal stability z-score (potassium arsenate): -1.12

Target: STRAP (UniProt Q9Y3F4)
- thermal stability z-score (lipoamide; [1]): 0.312
- thermal stability z-score (lipoamide; arsenate co-treatment: none): 0.0419
- thermal stability z-score (potassium arsenate): -0.875

Target: PTRH2 (UniProt Q9Y3E5)
UniProt Q9Y3E5, sequence (Q9Y3E5 whole entry): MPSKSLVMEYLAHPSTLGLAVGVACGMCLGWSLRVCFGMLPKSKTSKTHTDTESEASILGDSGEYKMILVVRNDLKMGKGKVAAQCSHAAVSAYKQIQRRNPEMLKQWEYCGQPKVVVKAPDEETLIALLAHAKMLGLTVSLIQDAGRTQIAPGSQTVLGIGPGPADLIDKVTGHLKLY
- thermal stability z-score (lipoamide; [1]): -0.239
- thermal stability z-score (lipoamide; arsenate co-treatment: none): -0.143
- thermal stability z-score (potassium arsenate): -0.0653

Target: LSM3 (UniProt P62310)
- thermal stability z-score (lipoamide; [1]): 0.229
- thermal stability z-score (lipoamide; arsenate co-treatment: none): -0.327
- thermal stability z-score (potassium arsenate): -0.624

Target: MRPS11 (UniProt P82912)
- thermal stability z-score (lipoamide; [1]): 0.302
- thermal stability z-score (lipoamide; arsenate co-treatment: none): -0.354
- thermal stability z-score (potassium arsenate): 0.34

Target: CCNDBP1 (UniProt O95273)
- thermal stability z-score (lipoamide; [1]): 0.104
- thermal stability z-score (lipoamide; arsenate co-treatment: none): -0.0265
- thermal stability z-score (potassium arsenate): 0.133

Target: ZCCHC11 (UniProt Q5TAX3)
- thermal stability z-score (lipoamide; [1]): -0.38
- thermal stability z-score (lipoamide; arsenate co-treatment: none): -0.287
- thermal stability z-score (potassium arsenate): -0.424

Target: TMEM11 (UniProt P17152)
UniProt P17152, sequence (P17152 whole entry): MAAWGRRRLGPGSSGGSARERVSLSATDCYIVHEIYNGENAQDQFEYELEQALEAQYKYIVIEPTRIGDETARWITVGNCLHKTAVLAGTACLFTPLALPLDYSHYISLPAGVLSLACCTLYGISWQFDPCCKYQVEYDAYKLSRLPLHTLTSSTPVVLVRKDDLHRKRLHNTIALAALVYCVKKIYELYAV
- thermal stability z-score (lipoamide; [1]): -0.251
- thermal stability z-score (lipoamide; arsenate co-treatment: none): -0.145
- thermal stability z-score (potassium arsenate): -1.1

Target: PPP4R3A (UniProt Q6IN85)
- thermal stability z-score (lipoamide; [1]): 0.268
- thermal stability z-score (lipoamide; arsenate co-treatment: none): 0.184
- thermal stability z-score (potassium arsenate): -0.165

Target: ACBD5 (UniProt Q5T8D3)
- thermal stability z-score (lipoamide; [1]): -1.5
- thermal stability z-score (lipoamide; arsenate co-treatment: none): -0.737
- thermal stability z-score (potassium arsenate): 0.243

Target: ACAT1 (UniProt P24752)
- thermal stability z-score (lipoamide; [1]): 0.399
- thermal stability z-score (lipoamide; arsenate co-treatment: none): 1.07
- thermal stability z-score (potassium arsenate): 0.878

Target: BORCS5|LOH12CR1
- thermal stability z-score (lipoamide; [1]): 1.36
- thermal stability z-score (lipoamide; arsenate co-treatment: none): 1.29
- thermal stability z-score (potassium arsenate): 0.518

Target: CTNND1 (UniProt O60716)
- thermal stability z-score (lipoamide; [1]): 0.292
- thermal stability z-score (lipoamide; arsenate co-treatment: none): 0.231
- thermal stability z-score (potassium arsenate): -0.105

Target: TLN2 (UniProt Q9Y4G6)
- thermal stability z-score (lipoamide; [1]): -1.57
- thermal stability z-score (lipoamide; arsenate co-treatment: none): -0.868
- thermal stability z-score (potassium arsenate): -0.69

Target: PRSS56 (UniProt P0CW18)
- thermal stability z-score (lipoamide; [1]): -3.63
- thermal stability z-score (lipoamide; arsenate co-treatment: none): -2.95
- thermal stability z-score (potassium arsenate): 0.756

Target: PITRM1 (UniProt Q5JRX3)
- thermal stability z-score (lipoamide; [1]): 0.579
- thermal stability z-score (lipoamide; arsenate co-treatment: none): 0.327
- thermal stability z-score (potassium arsenate): 2.58

Target: SLK (UniProt Q9H2G2)
- thermal stability z-score (lipoamide; [1]): 0.413
- thermal stability z-score (lipoamide; arsenate co-treatment: none): 0.153
- thermal stability z-score (potassium arsenate): -0.419

Target: CRIM1 (UniProt Q9NZV1)
- thermal stability z-score (lipoamide; [1]): -2.84
- thermal stability z-score (lipoamide; arsenate co-treatment: none): -1.95
- thermal stability z-score (potassium arsenate): -2.04

Target: RASSF5 (UniProt Q8WWW0)
- thermal stability z-score (lipoamide; [1]): -0.444
- thermal stability z-score (lipoamide; arsenate co-treatment: none): -0.459
- thermal stability z-score (potassium arsenate): 0.498

Target: CYB5R1 (UniProt Q9UHQ9)
- thermal stability z-score (lipoamide; [1]): 1.47
- thermal stability z-score (lipoamide; arsenate co-treatment: none): 0.244
- thermal stability z-score (potassium arsenate): -2.32

Target: TRNT1 (UniProt Q96Q11)
- thermal stability z-score (lipoamide; [1]): 0.00685
- thermal stability z-score (lipoamide; arsenate co-treatment: none): -0.189
- thermal stability z-score (potassium arsenate): -0.174

Target: NFIC (UniProt P08651)
UniProt P08651, sequence (P08651 whole entry): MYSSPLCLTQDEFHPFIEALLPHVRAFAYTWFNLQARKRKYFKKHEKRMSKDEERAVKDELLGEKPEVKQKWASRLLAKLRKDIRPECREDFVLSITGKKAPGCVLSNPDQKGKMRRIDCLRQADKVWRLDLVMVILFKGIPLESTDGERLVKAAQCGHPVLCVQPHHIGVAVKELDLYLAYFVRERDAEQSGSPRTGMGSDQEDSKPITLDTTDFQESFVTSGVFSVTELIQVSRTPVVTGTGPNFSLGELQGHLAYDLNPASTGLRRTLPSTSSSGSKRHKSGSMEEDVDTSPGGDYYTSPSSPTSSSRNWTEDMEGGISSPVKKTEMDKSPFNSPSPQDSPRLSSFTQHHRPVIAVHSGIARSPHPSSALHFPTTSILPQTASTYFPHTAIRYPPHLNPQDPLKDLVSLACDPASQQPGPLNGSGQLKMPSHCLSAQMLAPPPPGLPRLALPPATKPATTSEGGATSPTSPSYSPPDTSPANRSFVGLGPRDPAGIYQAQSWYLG
- thermal stability z-score (lipoamide; [1]): 0.26
- thermal stability z-score (lipoamide; arsenate co-treatment: none): 0.173
- thermal stability z-score (potassium arsenate): -0.494

Target: CC2D1A (UniProt Q6P1N0)
- thermal stability z-score (lipoamide; [1]): 0.117
- thermal stability z-score (lipoamide; arsenate co-treatment: none): 0.0816
- thermal stability z-score (potassium arsenate): -0.0172

Target: DIAPH3 (UniProt Q9NSV4)
UniProt Q9NSV4, sequence (Q9NSV4 whole entry): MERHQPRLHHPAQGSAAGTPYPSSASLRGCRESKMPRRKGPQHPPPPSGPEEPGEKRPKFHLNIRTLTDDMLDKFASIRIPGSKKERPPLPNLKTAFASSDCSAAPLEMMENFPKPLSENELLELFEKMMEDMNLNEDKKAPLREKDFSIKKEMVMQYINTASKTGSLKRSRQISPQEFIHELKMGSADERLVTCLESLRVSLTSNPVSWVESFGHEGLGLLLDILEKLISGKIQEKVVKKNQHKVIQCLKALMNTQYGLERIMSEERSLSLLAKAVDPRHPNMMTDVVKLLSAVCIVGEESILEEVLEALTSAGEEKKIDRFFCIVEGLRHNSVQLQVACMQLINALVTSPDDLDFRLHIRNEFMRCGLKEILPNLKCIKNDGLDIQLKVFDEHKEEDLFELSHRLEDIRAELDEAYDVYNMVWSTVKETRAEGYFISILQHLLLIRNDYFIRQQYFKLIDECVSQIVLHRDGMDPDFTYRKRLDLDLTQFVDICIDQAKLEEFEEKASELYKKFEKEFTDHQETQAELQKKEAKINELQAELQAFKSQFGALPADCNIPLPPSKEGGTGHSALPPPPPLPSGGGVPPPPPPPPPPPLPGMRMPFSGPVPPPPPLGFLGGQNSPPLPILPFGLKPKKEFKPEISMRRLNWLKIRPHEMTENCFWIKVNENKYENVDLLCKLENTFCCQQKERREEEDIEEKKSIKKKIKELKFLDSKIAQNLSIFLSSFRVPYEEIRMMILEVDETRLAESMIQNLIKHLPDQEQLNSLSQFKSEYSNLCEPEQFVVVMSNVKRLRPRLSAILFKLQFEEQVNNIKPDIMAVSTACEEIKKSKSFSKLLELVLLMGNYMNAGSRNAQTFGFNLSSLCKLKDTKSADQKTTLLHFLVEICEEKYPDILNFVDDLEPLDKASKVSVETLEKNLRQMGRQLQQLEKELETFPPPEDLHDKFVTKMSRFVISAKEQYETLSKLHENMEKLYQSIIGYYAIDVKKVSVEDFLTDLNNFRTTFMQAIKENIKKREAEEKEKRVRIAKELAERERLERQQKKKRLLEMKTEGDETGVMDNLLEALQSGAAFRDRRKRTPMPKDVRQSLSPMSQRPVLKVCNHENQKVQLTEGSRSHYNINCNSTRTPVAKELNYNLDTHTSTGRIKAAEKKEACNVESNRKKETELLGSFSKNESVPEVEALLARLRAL
- thermal stability z-score (lipoamide; [1]): -1.4
- thermal stability z-score (lipoamide; arsenate co-treatment: none): -0.761
- thermal stability z-score (potassium arsenate): -0.0767

Target: TSN (UniProt Q15631)
- thermal stability z-score (lipoamide; [1]): 1.41
- thermal stability z-score (lipoamide; arsenate co-treatment: none): 1.61
- thermal stability z-score (potassium arsenate): -0.161

Target: NCAPH2 (UniProt Q6IBW4)
- thermal stability z-score (lipoamide; [1]): -0.0183
- thermal stability z-score (lipoamide; arsenate co-treatment: none): 0.00929
- thermal stability z-score (potassium arsenate): -0.299

Target: NUDC (UniProt Q9Y266)
- thermal stability z-score (lipoamide; [1]): 0.104
- thermal stability z-score (lipoamide; arsenate co-treatment: none): 0.205
- thermal stability z-score (potassium arsenate): 0.573

Target: SCO1 (UniProt O75880)
- thermal stability z-score (lipoamide; [1]): -2.79
- thermal stability z-score (lipoamide; arsenate co-treatment: none): -2.65
- thermal stability z-score (potassium arsenate): 3.03

Target: PDIA5 (UniProt Q14554)
UniProt Q14554, sequence (Q14554 whole entry): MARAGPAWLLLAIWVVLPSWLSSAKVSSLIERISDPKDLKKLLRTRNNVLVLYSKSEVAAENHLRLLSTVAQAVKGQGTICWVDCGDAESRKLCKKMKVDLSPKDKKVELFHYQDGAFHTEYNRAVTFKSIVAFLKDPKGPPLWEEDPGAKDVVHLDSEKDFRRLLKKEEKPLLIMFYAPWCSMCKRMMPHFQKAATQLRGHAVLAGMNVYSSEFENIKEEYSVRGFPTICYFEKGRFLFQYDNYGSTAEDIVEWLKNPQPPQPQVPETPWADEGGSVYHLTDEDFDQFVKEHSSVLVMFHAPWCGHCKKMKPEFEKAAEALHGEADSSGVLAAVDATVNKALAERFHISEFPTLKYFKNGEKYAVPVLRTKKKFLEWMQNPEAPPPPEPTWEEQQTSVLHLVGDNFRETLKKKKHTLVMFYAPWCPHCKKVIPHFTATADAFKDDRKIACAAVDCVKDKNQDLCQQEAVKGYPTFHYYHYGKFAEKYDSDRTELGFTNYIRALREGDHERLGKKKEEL
- thermal stability z-score (lipoamide; [1]): -3.58
- thermal stability z-score (lipoamide; arsenate co-treatment: none): -2.41
- thermal stability z-score (potassium arsenate): 0.611

Target: DECR2 (UniProt Q9NUI1)
- thermal stability z-score (lipoamide; [1]): 1.26
- thermal stability z-score (lipoamide; arsenate co-treatment: none): 1.15
- thermal stability z-score (potassium arsenate): 1.27

Target: MRTO4 (UniProt Q9UKD2)
- thermal stability z-score (lipoamide; [1]): 0.246
- thermal stability z-score (lipoamide; arsenate co-treatment: none): 0.308
- thermal stability z-score (potassium arsenate): 0.036

Target: SLC46A1 (UniProt Q96NT5)
- thermal stability z-score (lipoamide; [1]): -0.375
- thermal stability z-score (lipoamide; arsenate co-treatment: none): 0.408
- thermal stability z-score (potassium arsenate): -1.24

Target: U2AF2 (UniProt P26368)
- thermal stability z-score (lipoamide; [1]): -0.241
- thermal stability z-score (lipoamide; arsenate co-treatment: none): -0.169
- thermal stability z-score (potassium arsenate): -1.31

Target: APMAP (UniProt Q9HDC9)
- thermal stability z-score (lipoamide; [1]): 1.33
- thermal stability z-score (lipoamide; arsenate co-treatment: none): 0.655
- thermal stability z-score (potassium arsenate): 0.179

Target: FAAP100 (UniProt Q0VG06)
- thermal stability z-score (lipoamide; [1]): 0.0838
- thermal stability z-score (lipoamide; arsenate co-treatment: none): -0.0268
- thermal stability z-score (potassium arsenate): -0.167

Target: TYRO3 (UniProt Q06418)
- thermal stability z-score (lipoamide; [1]): 0.189
- thermal stability z-score (lipoamide; arsenate co-treatment: none): -0.0901
- thermal stability z-score (potassium arsenate): -0.136

Target: MANBA (UniProt O00462)
- thermal stability z-score (lipoamide; [1]): -1.33
- thermal stability z-score (lipoamide; arsenate co-treatment: none): -1.4
- thermal stability z-score (potassium arsenate): -0.726

Target: ISG20 (UniProt Q96AZ6)
- thermal stability z-score (lipoamide; [1]): 0.189
- thermal stability z-score (lipoamide; arsenate co-treatment: none): 0.668
- thermal stability z-score (potassium arsenate): 0.863

Target: NAA50 (UniProt Q9GZZ1)
- thermal stability z-score (lipoamide; [1]): 0.872
- thermal stability z-score (lipoamide; arsenate co-treatment: none): 0.589
- thermal stability z-score (potassium arsenate): 0.502

Target: SNRPD3 (UniProt P62318)
UniProt P62318, sequence (P62318 whole entry): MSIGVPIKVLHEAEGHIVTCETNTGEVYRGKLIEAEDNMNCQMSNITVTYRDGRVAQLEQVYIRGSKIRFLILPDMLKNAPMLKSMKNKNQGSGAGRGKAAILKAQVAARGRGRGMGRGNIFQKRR
- thermal stability z-score (lipoamide; [1]): 0.93
- thermal stability z-score (lipoamide; arsenate co-treatment: none): 0.207
- thermal stability z-score (potassium arsenate): 0.399

Target: C12ORF43 (UniProt Q96C57)
UniProt Q96C57, sequence (Q96C57 whole entry): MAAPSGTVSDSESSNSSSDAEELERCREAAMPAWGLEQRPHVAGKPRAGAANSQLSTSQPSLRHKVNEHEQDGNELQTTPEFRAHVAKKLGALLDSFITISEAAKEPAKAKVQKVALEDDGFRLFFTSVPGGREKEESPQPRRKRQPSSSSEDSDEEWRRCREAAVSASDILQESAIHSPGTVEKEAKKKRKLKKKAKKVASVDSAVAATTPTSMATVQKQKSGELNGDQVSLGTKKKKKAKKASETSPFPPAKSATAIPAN
- thermal stability z-score (lipoamide; [1]): 0.941
- thermal stability z-score (lipoamide; arsenate co-treatment: none): -0.0235
- thermal stability z-score (potassium arsenate): -1.08

Target: ALKBH6 (UniProt Q3KRA9)
- thermal stability z-score (lipoamide; [1]): 0.205
- thermal stability z-score (lipoamide; arsenate co-treatment: none): 0.0821
- thermal stability z-score (potassium arsenate): 3.15

Target: PRMT6 (UniProt Q96LA8)
- thermal stability z-score (lipoamide; [1]): 0.257
- thermal stability z-score (lipoamide; arsenate co-treatment: none): 0.412
- thermal stability z-score (potassium arsenate): 0.483

Target: PALMD (UniProt Q9NP74)
- thermal stability z-score (lipoamide; [1]): 1.1
- thermal stability z-score (lipoamide; arsenate co-treatment: none): 0.987
- thermal stability z-score (potassium arsenate): 1.81

Target: STAU1 (UniProt O95793)
- thermal stability z-score (lipoamide; [1]): -1.06
- thermal stability z-score (lipoamide; arsenate co-treatment: none): -0.199
- thermal stability z-score (potassium arsenate): -0.275

Target: WAPL (UniProt Q7Z5K2)
- thermal stability z-score (lipoamide; [1]): 0.0171
- thermal stability z-score (lipoamide; arsenate co-treatment: none): 0.484
- thermal stability z-score (potassium arsenate): -0.434

Target: MMS19 (UniProt Q96T76)
UniProt Q96T76, sequence (Q96T76 whole entry): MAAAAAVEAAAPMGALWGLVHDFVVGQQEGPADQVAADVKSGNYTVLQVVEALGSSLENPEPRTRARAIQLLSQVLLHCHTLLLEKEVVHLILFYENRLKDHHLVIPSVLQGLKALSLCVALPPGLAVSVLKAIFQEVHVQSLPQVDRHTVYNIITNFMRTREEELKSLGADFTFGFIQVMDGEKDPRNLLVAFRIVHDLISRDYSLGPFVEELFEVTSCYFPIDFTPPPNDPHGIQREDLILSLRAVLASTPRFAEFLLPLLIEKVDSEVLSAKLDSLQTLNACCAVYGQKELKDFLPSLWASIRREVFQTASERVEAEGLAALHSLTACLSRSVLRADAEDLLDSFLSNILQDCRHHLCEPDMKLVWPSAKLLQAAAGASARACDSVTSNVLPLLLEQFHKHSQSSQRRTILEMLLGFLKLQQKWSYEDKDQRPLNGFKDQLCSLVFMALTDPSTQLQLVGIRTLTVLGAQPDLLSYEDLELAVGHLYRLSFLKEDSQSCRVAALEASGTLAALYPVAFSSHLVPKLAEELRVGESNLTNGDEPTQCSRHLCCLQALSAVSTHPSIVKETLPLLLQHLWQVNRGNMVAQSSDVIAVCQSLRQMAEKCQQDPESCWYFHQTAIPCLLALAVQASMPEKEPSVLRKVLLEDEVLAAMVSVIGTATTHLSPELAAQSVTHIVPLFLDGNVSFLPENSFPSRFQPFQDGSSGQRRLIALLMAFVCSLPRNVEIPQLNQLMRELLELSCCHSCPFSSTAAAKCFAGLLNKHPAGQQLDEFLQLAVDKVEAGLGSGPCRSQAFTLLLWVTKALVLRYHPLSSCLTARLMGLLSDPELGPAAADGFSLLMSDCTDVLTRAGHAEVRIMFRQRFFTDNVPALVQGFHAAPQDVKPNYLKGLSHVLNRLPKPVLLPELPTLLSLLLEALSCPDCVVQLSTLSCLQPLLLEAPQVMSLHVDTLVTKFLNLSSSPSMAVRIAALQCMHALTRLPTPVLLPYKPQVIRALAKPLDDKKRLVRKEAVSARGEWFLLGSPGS
- thermal stability z-score (lipoamide; [1]): -0.784
- thermal stability z-score (lipoamide; arsenate co-treatment: none): -1.16
- thermal stability z-score (potassium arsenate): -0.949
